Experimental data as given in patent publication US20110306641A1, “NOVEL 2,6-SUBSTITUTED-3-NITROPYRIDINE DERIVATIVE, METHOD FOR PREPARING SAME, AND PHARMACEUTICAL PREPARATION INCLUDING SAME” (priority 2008, published 2011).

Tests used:
Calvarial cell = assay: Cytotoxicity test (MTT) in osteoblasts (calvarial cells); settings: 1 μM, 72 hours, vs vehicle control
Procedure: Drugs were diluted to a concentration of 2 μM in α-MEM culture media supplemented with 10% FBS. The vehicle control group was established to contain 0.2% DMSO. 100 μL/well of the diluted drugs were dispensed into 96-well plates to which osteoblasts (calvarial cells) prepared in Experimental Example 1 were then added at a density of 1.0×10^4 cells/100 μL/well. Here, the final compound concentration in the cell culture was 1 μM, and the vehicle control group contained 0.1% DMSO. The cells were cultured in a 5% CO2 inhibitorr at 37° for 72 hours. 25 μL of 3-(4,5-dimethyl-2-thiazolyl)-2,5-diphenyl-2H-tetrazolium bromide (MTT) dissolved in PBS (2 mg/mL) was added to each cell culture 4 hours before the end of culture. After completion of the reaction, the plates were centrifuged, the media were discarded, and 100 μL of formazan was added and dissolved in dimethyl sulfoxide (DMSO). Finally, the absorbance of the developed plates was measured at 540 nm. The cell viability was expressed as % concentration in comparison with the vehicle control group.

[1] = test system: osteoclastogenesis (formation of multinucleated osteoclasts); assay: Osteoclastogenesis inhibition via co-culture system (bone marrow cells + osteoblasts, TRAP staining); assay type: cell-based, mouse; settings: Mus musculus, Osteoclast, 168 h, 7 days co-culture, vs vehicle control
Procedure: Osteoclastogenesis inhibitory effects of the compounds of the present invention were evaluated via a co-culture system (Reference: Endocrinology 137(1996), 2187 to 2190, E. Jimi et al.). A specific experimental method is as follows.
1) Preparation of Bone Marrow Cells and Osteoblasts
Femur and tibia were aseptically dissected from 6 to 8-week-old male ddY mice to harvest bone marrow cells by a conventional method using a syringe. In brief, tissues were removed from the dissected bone, the bone ends were cut off with scissors, and the bone marrow was isolated by pushing a medium-containing syringe (23G) against the one end of the cut bone. The isolated bone marrow was subjected to repeated piston movement of a syringe such that single cells were obtained (Reference: Endocrinology 123(1988), 2600 to 2602, Takahashi et al.). After removal of red blood cells within the bone marrow, the bone marrow cells recovered by centrifugation were placed in an α-MEM supplemented with 10% fetal bovine serum (FBS), followed by counting of nucleated cells and then were immediately used for a co-culture system.
For the preparation of osteoblasts (Calvarial cells), the cranial bone were aseptically dissected from 1 to 2-day-old neonatal ICR mice and subjected to continuous reaction with a 0.2% collagenase solution to separate osteoblasts. The cell-suspended supernatant was centrifuged to recover osteoblasts which were grown to full confluence in an α-MEM supplemented with 10% FBS and then diluted to a desired cell density for use in the experiment.
2) Osteoclastogenesis Inhibition Experiment Via Co-Culture System
As the medium used for a co-culture system, a differentiation medium with the addition of differentiation factors 1α,25-dihydroxyvitamin D3 (10^−8M) and dexamethasone (10^−8M) to α-MEM supplemented with 10% FBS was used for the induction of osteoclastogenesis. First, the compounds of the present invention dissolved in dimethyl sulfoxide (DMSO) at a concentration of 1 mM were diluted to 2 μM using the above-mentioned differentiation medium. As a vehicle control group, 0.2% (v/v) DMSO was added to the medium. 100 μL/well of each medium was added to 96-well plates. In addition, the above prepared bone marrow cells and osteoblasts were plated onto 96-well plates at a density of 1×10^5 cells/50 μL/well and 3×10^3 cells/50 μL/well, respectively. The total volume/well was 200 μL and the final compound concentration was 1 μM. The control group was 0.1% (v/v) DMSO. The cells were cultured with exchange of the culture media with fresh media containing differentiation factors and test materials (materials containing the compounds of the present invention) at an interval of 2 to 3 days.
7 days after culturing of cells, the formation of multinucleated osteoclasts was confirmed by microscopic examination, the medium was removed from the wells and then the cells were fixed in a 10% phosphate-buffered formalin solution. The degree of formation of mature osteoclasts was measured taking advantage of the characteristics of osteoclasts showing a positive reaction to a tartrate-resistant acid phosphatase (TRAP) staining solution. The TRAP staining solution was prepared in a manner such that naphthol AS-MS phosphate as a substrate and a coloring agent (Fast Red Violet LB salt) were dissolved in N,N-dimethylformamide, and a 0.1N NaHCO3 buffer solution containing 50 mM of tartaric acid was added thereto. Among the TRAP-positive cells under a light microscope, multinucleated osteoclasts having 6 to 7 nuclei were regarded as mature osteoclasts.
The degree of inhibition of osteoclastogenesis was calculated according to the following equation 1. The results are summarized in Table 2 below (Experiments were carried out for 4 wells/experimental group (n=4), and the results are given in terms of mean±standard deviation) […]

SMILES	Cell viability (%) Calvarial cell (Calvarial cell) [%]	inhibition at 1 µM [1] [%]
Nc1ccc([N+](=O)[O-])c(Nc2ccc3[nH]ncc3c2)n1 [Compound 32, 2-(1H-indazol-5-yl)amino-6-amino-3-nitropyridine]	99	100
O=[N+]([O-])c1ccc(NCCc2c[nH]cn2)nc1Nc1ccc2[nH]ncc2c1 [Compound 48, 2-(1H-indazol-5-yl)amino-6-[(imidazol-4-yl)ethylamino]-3-nitropyridine]	96	
C[C@@H](CO)Nc1ccc([N+](=O)[O-])c(Nc2ccc3cn[nH]c3c2)n1 [Compound 18, 2-(1H-indazol-6-yl)amino-6-[(1-(S)-methyl-2-hydroxyethyl)-amino]-3-nitropyridine]	98	
C[C@@H](CO)Nc1ccc([N+](=O)[O-])c(Nc2ccc3[nH]ncc3c2)n1 [Compound 36, 2-(1H-indazol-5-yl)amino-6-[(1-(S)-methyl-2-hydroxyethyl)-amino]-3-nitropyridine]	103	72
O=[N+]([O-])c1ccc(NCCN2CCOCC2)nc1Nc1ccc2cn[nH]c2c1 [Compound 28, 2-(1H-indazol-6-yl)amino-6-(2-morpholinoethylamino)-3-nitropyridine]	104	74
CC1(C)CN(c2ccc([N+](=O)[O-])c(Nc3ccc4[nH]ncc4c3)n2)CC(C)(C)N1 [Compound 13, 2-(1H-indazol-5-yl)amino-6-(2,2,6,6-tetramethylpiperazin-4-yl)-3-nitropyridine]	94	88
CN1CCN(c2ccc([N+](=O)[O-])c(Nc3ccc4cn[nH]c4c3)n2)CC1 [Compound 40, 2-(1H-indazol-6-yl)amino-6-(4-methylpiperazin-1-yl)-3-nitropyridine]	95	
CC(C)(C)NNc1ccc([N+](=O)[O-])c(Nc2ccc3[nH]ncc3c2)n1 [Compound 43, 2-(1H-indazol-5-yl)amino-6-[(t-butylamino)amino]-3-nitropyridine]	100	
O=[N+]([O-])c1ccc(N2CCC(O)CC2)nc1Nc1ccc2cn[nH]c2c1 [Compound 41, 2-(1H-indazol-6-yl)amino-6-(4-hydroxypiperidino)-3-nitropyridine]	98	
O=[N+]([O-])c1ccc(NCc2cccnc2)nc1Nc1ccc2cn[nH]c2c1 [Compound 46, 2-(1H-indazo-6-yl)amino-6-[(3-pyridyl)methylamino]-3-nitropyridine]	99	
CNc1ccc([N+](=O)[O-])c(Nc2ccc3cn[nH]c3c2)n1 [Compound 31, 2-(1H-indazol-6-yl)amino-6-(methylamino)-3-nitropyridine]	97	
O=[N+]([O-])c1ccc(NCCCn2ccnc2)nc1Nc1ccc2[nH]ncc2c1 [Compound 29, 2-(1H-indazol-5-yl)amino-6-[3-(imidazol-1-yl)propylamino]-3-nitropyridine]	117	73
NC1CCN(c2ccc([N+](=O)[O-])c(Nc3ccc4[nH]ncc4c3)n2)CC1 [Compound 51, 2-(1H-indazol-5-yl)amino-6-[(4-amino)piperidino]-3-nitropyridine]	73	
CN1CCN(Nc2ccc([N+](=O)[O-])c(Nc3ccc4[nH]ncc4c3)n2)CC1 [Compound 42, 2-(1H-indazol-5-yl)amino-6-[(4-methylpiperazin-1-yl)amino]-3-nitropyridine]	106	
O=[N+]([O-])c1ccc(NCCc2ccccn2)nc1Nc1ccc2[nH]ncc2c1 [Compound 27, 2-(1H-indazol-5-yl)amino-6-[(2-pyridyl)ethylamino]-3-nitropyridine]	97	90
O=[N+]([O-])c1ccc(N2CCNCC2)nc1Nc1ccc2cn[nH]c2c1 [Compound 38, 2-(1H-indazol-6-yl)amino-6-(piperazin-1-yl)-3-nitropyridine]	91	90
NC1CCCCC1Nc1ccc([N+](=O)[O-])c(Nc2ccc3[nH]ncc3c2)n1 (centres unmarked) [Compound 30, 2-(1H-indazol-5-yl)amino-6-[(2-aminocyclohexyl)amino]-3-nitropyridine]	114	100
Cc1cncn1-c1ccc([N+](=O)[O-])c(Nc2ccc3[nH]ncc3c2)n1 [Compound 4, 2-(1H-indazol-5-yl)amino-6-(5-methylimidazol-1-yl)-3-nitropyridine]	101	67
NCCCCNc1ccc([N+](=O)[O-])c(Nc2ccc3[nH]ncc3c2)n1 [Compound 50, 2-(1H-indazol-5-yl)amino-6-(4-amino-n-butylamino)-3-nitropyridine]	95	100
O=[N+]([O-])c1ccc(N2CCN(CCO)CC2)nc1Nc1ccc2[nH]ncc2c1 [Compound 15, 2-(1H-indazol-5-yl)amino-6-[4-(2-hydroxyethyl)piperazin-1-yl]-3-nitropyridine]	90	98
CC1CN(c2ccc([N+](=O)[O-])c(Nc3ccc4[nH]ncc4c3)n2)CC(C)N1 (centres unmarked) [Compound 44, 2-(1H-indazol-5-yl)amino-6-(3,5-dimethylpiperazin-1-yl)-3-nitropyridine]	96	90
Cc1nccn1-c1ccc([N+](=O)[O-])c(Nc2ccc3[nH]ncc3c2)n1 [Compound 2, 2-(1H-indazol-5-yl)amino-6-(2-methylimidazol-1-yl)-3-nitropyridine]	104	70
O=[N+]([O-])c1ccc(NCc2cccnc2)nc1Nc1ccc2[nH]ncc2c1 [Compound 45, 2-(1H-indazol-5-yl)amino-6-[(3-pyridyl)methylamino]-3-nitropyridine]	103	
O=[N+]([O-])c1ccc(NCc2ccncc2)nc1Nc1ccc2[nH]ncc2c1 [Compound 47, 2-(1H-indazol-5-yl)amino-6-[(4-pyridyl)methylamino]-3-nitropyridine]	102	71
